Reference: ChEMBL document CHEMBL1201862, “PubChem BioAssay data set” (2004)
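Test compounds were applied to cells in 96-well plates for 48 hours at 5 doses. GI50 = concentration required for 50% inhibition of growth.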 Calls of active or inactive are those of the source. No stated cut-off is given here; in the data, active = GI50 up to about 1.1 µM and inactive = higher.

What was measured:
Assay in all cases: inhibition of tumour cell growth, NCI panel, 48 h
ACHN = test system: ACHN
CCRF-CEM = test system: CCRF-CEM
DU-145 = test system: DU-145
HCC 2998 = test system: HCC 2998
HCT-15 = test system: HCT-15
HT-29 = test system: HT-29
KM12 = test system: KM12
LOX IMVI = test system: LOX IMVI
M14 = test system: M14
NCI-H23 = test system: NCI-H23
NCI/ADR-RES = test system: NCI/ADR-RES
OVCAR-4 = test system: OVCAR-4
OVCAR-8 = test system: OVCAR-8
SNB-19 = test system: SNB-19
T47D = test system: T47D
UACC-257 = test system: UACC-257
UACC-62 = test system: UACC-62
NCI-H522 = test system: NCI-H522

Row | SMILES | GI50 (ACHN) | GI50 (CCRF-CEM) | GI50 (DU-145) | GI50 (HCC 2998) | GI50 (HCT-15) | GI50 (HT-29) | GI50 (KM12) | GI50 (LOX IMVI) | GI50 (M14) | GI50 (NCI-H23) | GI50 (NCI/ADR-RES) | GI50 (OVCAR-4) | GI50 (OVCAR-8) | GI50 (SNB-19) | GI50 (T47D) | GI50 (UACC-257) | GI50 (UACC-62) | GI50 (NCI-H522)
1 | Cc1nc2c(O)nc3ccccc3c2o1 | > 100 µM (inactive) | > 100 µM (inactive) | > 100 µM (inactive) | > 100 µM (inactive) | > 100 µM | > 100 µM (inactive) | > 100 µM (inactive) | > 100 µM (inactive) | > 100 µM (inactive) | > 100 µM (inactive) | > 100 µM (inactive) | > 100 µM (inactive) | > 100 µM (inactive) | > 100 µM (inactive) | > 100 µM (inactive) | > 100 µM (inactive) | > 100 µM (inactive) | –
2 | N#CC(c1ccc(O)cc1)N1CCN(C(C#N)c2ccc(O)cc2)CC1 (configuration not stated) | > 100 µM (inactive) | > 100 µM (inactive) | > 51.8 µM (inactive) | > 100 µM (inactive) | 97.3 µM | > 100 µM (inactive) | > 100 µM (inactive) | > 100 µM (inactive) | > 100 µM (inactive) | > 100 µM (inactive) | 40.8 µM (inactive) | > 100 µM (inactive) | 24.3 µM (inactive) | 24.9 µM (inactive) | 39.5 µM (inactive) | > 100 µM (inactive) | 64.1 µM (inactive) | > 100 µM (inactive)
3 | CC1=C(C)CC2C(=O)N(c3cc(C(C)(C)C)ccc3C(C)(C)C)C(=O)C2C1 (configuration not stated) | 5.38 µM (inactive) | > 100 µM (inactive) | > 100 µM (inactive) | 52.6 µM (inactive) | > 100 µM | > 100 µM (inactive) | > 100 µM (inactive) | > 100 µM (inactive) | 52.1 µM (inactive) | 94.4 µM (inactive) | > 100 µM (inactive) | > 100 µM (inactive) | > 100 µM (inactive) | 23.1 µM (inactive) | > 100 µM (inactive) | > 100 µM (inactive) | 14.5 µM (inactive) | 8.2 µM (inactive)
4 | CCOC(=O)C(NC(=O)OC(C)(C)C)C(=O)OCC | > 100 µM (inactive) | > 100 µM (inactive) | > 100 µM (inactive) | > 100 µM (inactive) | > 100 µM | > 100 µM (inactive) | > 100 µM (inactive) | – | – | > 100 µM (inactive) | > 100 µM (inactive) | > 100 µM (inactive) | > 100 µM (inactive) | > 100 µM (inactive) | > 100 µM (inactive) | > 100 µM (inactive) | > 100 µM (inactive) | > 100 µM (inactive)
5 | COc1c(Br)cc2ccccc2c1-c1c(OC)c(Br)cc2ccccc12 | > 100 µM (inactive) | > 100 µM (inactive) | > 100 µM (inactive) | > 100 µM (inactive) | > 100 µM | > 100 µM (inactive) | 79.1 µM (inactive) | > 100 µM (inactive) | > 100 µM (inactive) | > 100 µM (inactive) | > 100 µM (inactive) | > 100 µM (inactive) | > 100 µM (inactive) | > 100 µM (inactive) | 7.01 µM (inactive) | > 100 µM (inactive) | > 100 µM (inactive) | 74.6 µM (inactive)
6 | c1ncn(C23C4C5C6C4C2C6C53)n1 (configuration not stated) | > 100 µM (inactive) | > 100 µM (inactive) | > 100 µM (inactive) | > 100 µM (inactive) | > 100 µM | > 100 µM (inactive) | > 100 µM (inactive) | > 100 µM (inactive) | – | > 100 µM (inactive) | > 100 µM (inactive) | – | > 100 µM (inactive) | > 100 µM (inactive) | > 100 µM (inactive) | > 100 µM (inactive) | – | > 100 µM (inactive)
7 | CCOC(=O)Nn1c(CC#N)nnc1Cc1ccccc1 | > 100 µM (inactive) | – | > 100 µM (inactive) | > 100 µM (inactive) | > 100 µM | > 100 µM (inactive) | > 100 µM (inactive) | – | > 100 µM (inactive) | > 100 µM (inactive) | > 100 µM (inactive) | – | > 100 µM (inactive) | > 100 µM (inactive) | 84.9 µM (inactive) | > 100 µM (inactive) | > 100 µM (inactive) | > 100 µM (inactive)
8 | Cc1ccc(-c2nc(N/N=C/c3ccc(O)cc3)c3ccccc3n2)cc1 | 7.21 µM (inactive) | 15.8 µM (inactive) | 21.8 µM (inactive) | 14.1 µM (inactive) | 16.4 µM | 27.7 µM (inactive) | 13.5 µM (inactive) | 13.2 µM (inactive) | 5.02 µM (inactive) | 7.31 µM (inactive) | 20.4 µM (inactive) | 1.55 µM (inactive) | 22.9 µM (inactive) | 26.6 µM (inactive) | 5.22 µM (inactive) | 4.06 µM (inactive) | 12.3 µM (inactive) | 14.2 µM (inactive)
9 | CC1(C)CC(=O)c2[nH]c3ccccc3c2CC(=O)NCCc2cn1cn2 | 61.1 µM (inactive) | – | > 100 µM (inactive) | > 100 µM (inactive) | > 100 µM | > 100 µM (inactive) | > 100 µM (inactive) | > 100 µM (inactive) | > 100 µM (inactive) | > 100 µM (inactive) | > 100 µM (inactive) | > 100 µM (inactive) | > 100 µM (inactive) | 28 µM (inactive) | > 100 µM (inactive) | > 100 µM (inactive) | > 100 µM (inactive) | > 100 µM (inactive)
10 | N#CCCN(CCC#N)c1ccc(C(=N/c2ccc(Cl)cc2)/N=N/c2ccccc2)cc1 | > 100 µM (inactive) | > 100 µM (inactive) | 88.5 µM (inactive) | 26.6 µM (inactive) | 27.4 µM | > 100 µM (inactive) | 58.5 µM (inactive) | – | > 100 µM (inactive) | 54.2 µM (inactive) | 36.3 µM (inactive) | 66.5 µM (inactive) | > 100 µM (inactive) | > 100 µM (inactive) | 12.8 µM (inactive) | 59.4 µM (inactive) | 34.3 µM (inactive) | 36.6 µM (inactive)
11 | CC1(C)C[C@H](O)[C@H](O)[C@]23C(=O)O[C@H](O)[C@H]2C(C=O)=CC[C@@H]13 | > 100 µM (inactive) | > 100 µM (inactive) | > 100 µM (inactive) | > 100 µM (inactive) | > 100 µM | > 100 µM (inactive) | > 100 µM (inactive) | > 100 µM (inactive) | – | > 100 µM (inactive) | > 100 µM (inactive) | – | > 100 µM (inactive) | > 100 µM (inactive) | 73.1 µM (inactive) | > 100 µM (inactive) | 58.9 µM (inactive) | > 100 µM (inactive)
12 | COC(=O)c1ccc(/C=N/c2cc(C)nn2-c2ccccc2)cc1 | > 100 µM (inactive) | 29.2 µM (inactive) | 41 µM (inactive) | 2.79 µM (inactive) | 13.7 µM | 22.2 µM (inactive) | 24.2 µM (inactive) | 35.9 µM (inactive) | 22.5 µM (inactive) | 48.5 µM (inactive) | 49.3 µM (inactive) | 38.6 µM (inactive) | 73.8 µM (inactive) | 33.5 µM (inactive) | 16.4 µM (inactive) | 6.04 µM (inactive) | 65.8 µM (inactive) | 28.8 µM (inactive)
13 | Cc1cccc(/C=N/NC(=S)NC2CCCCC2)n1 | 25.8 µM (inactive) | 1.14 µM (inactive) | 29.6 µM (inactive) | 20.7 µM (inactive) | 5.26 µM | 3.27 µM (inactive) | 31.1 µM (inactive) | 14 µM (inactive) | 23 µM (inactive) | 32.4 µM (inactive) | 11.9 µM (inactive) | 17.3 µM (inactive) | 19.4 µM (inactive) | 34.8 µM (inactive) | 2.58 µM (inactive) | 17.3 µM (inactive) | 21.3 µM (inactive) | 7.96 µM (inactive)
14 | Nc1nc(Cl)c(N)c(NCC2(CO)CCCC2)n1 | > 100 µM (inactive) | > 100 µM (inactive) | > 100 µM (inactive) | > 100 µM (inactive) | > 100 µM | > 100 µM (inactive) | > 100 µM (inactive) | 97.9 µM (inactive) | – | – | > 100 µM (inactive) | > 100 µM (inactive) | > 100 µM (inactive) | > 100 µM (inactive) | 0.826 µM (active) | 71.6 µM (inactive) | 1.83 µM (inactive) | > 100 µM (inactive)
15 | COc1ccc(C2c3cc4c(cc3OC(N3CCOCC3)C2C)OCO4)c(OC)c1OC (configuration not stated) | 16.1 µM (inactive) | 13 µM (inactive) | > 10 µM (inactive) | 10.8 µM (inactive) | 6.93 µM | 14 µM (inactive) | 5.55 µM (inactive) | 14.5 µM (inactive) | 8.22 µM (inactive) | 33.7 µM (inactive) | 12.1 µM (inactive) | – | 24.7 µM (inactive) | 10.7 µM (inactive) | 20.6 µM (inactive) | 15.9 µM (inactive) | 13.5 µM (inactive) | 6.89 µM (inactive)
16 | CC(C)=CCC/C(C)=C/C=C/C(C)=C/C=C/C(C)=C/C=C/C=C(C)/C=C/C=C(C)/C=C/[C@H]1C(C(C)(C)O)CC[C@]1(C)O (some centres not stated) | 22 µM (inactive) | 15.1 µM (inactive) | 16.9 µM (inactive) | 15.5 µM (inactive) | 19.4 µM | 27.5 µM (inactive) | 27.4 µM (inactive) | 23.3 µM (inactive) | 28.8 µM (inactive) | 20.2 µM (inactive) | 32.4 µM (inactive) | 32.1 µM (inactive) | 20.2 µM (inactive) | – | 22.9 µM (inactive) | 21.8 µM (inactive) | – | 17.3 µM (inactive)
17 | O=[N+]([O-])c1ccc(/N=N/N2CCCC2)cc1 | > 100 µM (inactive) | > 100 µM (inactive) | > 100 µM (inactive) | 4.38 µM (inactive) | > 100 µM | – | > 100 µM (inactive) | > 100 µM (inactive) | > 100 µM (inactive) | > 100 µM (inactive) | > 100 µM (inactive) | > 100 µM (inactive) | > 100 µM (inactive) | > 100 µM (inactive) | > 100 µM (inactive) | > 100 µM (inactive) | > 100 µM (inactive) | > 100 µM (inactive)
